This passage reports fold induction results from patent publication US20260324636A1, “COMPOSITION FOR PROVIDING PLANT WITH STRESS RESISTANCE” (KIRIN HOLDINGS KABUSHIKI KAISHA, priority 2022, published 2026).

For one assay, the system named is H1HSFA2. Kind of assay: H1HSFA2 gene expression by real-time PCR, Example 7. Type of assay: in vivo, hop. As to conditions: 1 mM in medium, 20° C. for 2 hours, leaves; read-out: H1HSFA2 expression level, increase vs control. The text has this: In order to design primers for the target genes necessary for gene expression analysis by real-time PCR, homologs of Arabidopsis thaliana high-temperature-responsive genes in hop were searched for. The amino acid sequences of Arabidopsis thaliana HSFA2 (AGI code: AT2G26150) and HSP17.6C (AGI code: AT1G53540) were obtained from TAIR (https://www.arabidopsis.org/), and the nucleotide sequences of the gene homologs were obtained using Hopbase (https://hopbase.cgrb.oregonstate.edu/). […] As the reference gene, the nucleotide sequence of the homolog of Arabidopsis thaliana EF1α (AGI code: AT1G18070) was obtained. The hop homolog genes were designated as H1HSFA2, H1HSP17.6C, and HIEF1α, respectively.
The materials as used in Example 4 were used.
The methods as employed in Example 4 were employed.
The leaves in the first and the second nodes from the apical buds of the tissue-cultured seedlings were sampled 1.5 months after the initiation of subculture and inoculated into a liquid medium consisting of a ½ Murashige and Skoog Plant Salt Mixture and 2 (w/v) % glucose. Specifically, a liquid medium was dispensed at 5 ml/well to a 6-well microplate (IWAKI), and 5 hop leaves were mounted thereon. […]
Thereafter, the relative expression level of the target gene upon N-acetylglutamic acid treatment was calculated by the ΔΔCt method.
(Quantitative PCR measures a nucleic acid by following its amplification.)

The subject of a further assay is ZAT12. The assay is described as follows: ZAT12 gene expression by real-time PCR, Example 11. Type of assay: in vivo. The settings on record: Arabidopsis thaliana; 0.4 mM, 22° C. for 2 hours; read-out: ZAT12 expression level, increase vs control. The protocol:
The materials as used in Example 1 were used.
The medium as used in Example 1 was used.
To the Arabidopsis thaliana plants grown for 7 days in the same manner as in Example 1, 0.4 mM N-acetylglutamic acid or an equivalent amount of sterile water was added, and the plants were incubated at 22° C. for 2 hours. After incubation for 2 hours, the samples were frozen with liquid nitrogen, and RNA was extracted using the RNeasy Plant Mini Kit […].
cDNA that would be necessary as a real-time PCR template was synthesized from the RNA obtained. 1000 ng total RNA was used for each sample, and cDNA was synthesized using the Verso cDNA Synthesis Kit (Thermo Fischer Scientific). The synthesized cDNA was diluted to 5-fold with sterile distilled water and subjected to real-time PCR. For real-time PCR, a reaction solution containing ZAT10 (AGI code: AT1G27730) and ZAT12 (AGI code: AT5G59820) as the target genes, PP2AA3 (AGI code: AT1G13320) as the reference gene, and TB Green Ex Taq II (TakaRa) was prepared. PCR was performed with the use of the LightCycler® 480 System (Roche) with the number of amplification cycles of 50. The primers shown below were used.
Thereafter, the relative expression levels of the target genes upon N-acetylglutamic acid treatment were calculated by the ΔΔCt method using the Cp values obtained by real-time PCR.

Molecules are shown by their SMILES.

In the case of `CC(=O)N[C@@H](CCC(=O)O)C(=O)O` [N-acetylglutamic acid], the fold induction at 1000 µM with H1HSFA2 is 1.7. In addition, the fold induction at 400 µM with ZAT12 is 37.
